How the values were obtained:
[1] = test system: phospho-ERK in A549 (G12S) cells; test: Inhibition of KRas-mediated phosphorylation of ERK (in-cell western); type: cell-based; details: Homo sapiens, 3 hours compound, phospho-ERK normalized to GAPDH
Method in brief: (§1)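 After a 3-hour incubation with diluted compound in 0.5% DMSO, cells are fixed, permeabilized and stained overnight at 4° C for phosphorylated ERK and GAPDH.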

[2] = test system: phospho-ERK in HCT116 (G13D) cells; test: as above; type: cell-based; details: Homo sapiens, HCT-116, 3 hours compound, phospho-ERK normalized to GAPDH
Method in brief: as §1

[3] = test system: phospho-ERK in NCI-H358 (G12C) cells; test: as above; type: cell-based; details: Homo sapiens, 3 hours compound, phospho-ERK normalized to GAPDH
Method in brief: as §1

[4] = test system: phospho-ERK in NCI-H727 (G12V) cells; test: as above; type: cell-based; details: Homo sapiens, NCI-H727, 3 h, 3 hours compound, phospho-ERK normalized to GAPDH
Method in brief: as §1

[5] = test system: phospho-ERK in PSN-1 (G12R) cells; test: as above; type: cell-based; details: Homo sapiens, PSN1, 3 hours compound, phospho-ERK normalized to GAPDH
Method in brief: as §1

[6] = biological target: KRas G12D (Homo sapiens, UniProt P01116, G12D); test: biochemical;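 further: TR-FRET displacement binding assay on KRas, read after a one-hour incubation at room temperature, IC50 fitted from percent-of-control values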
Description: (§2) The ability of a compound to bind to KRas was measured using a TR-FRET displacement assay. […] After a 60-minute incubation at room temperature, the reaction was measured using a BMG LABTECH CLARIO star Plus via TR-FRET. […] The POC values were fit to a 4-parameter IC50 equation and the IC50 value reported.

[7] = biological target: KRas G12V (Homo sapiens, UniProt P01116, G12V); test: biochemical;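 further: KRas binding measured by TR-FRET displacement at room temperature, IC50 fitted from percent of control values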
Description: as §2

[8] = biological target: KRas G12R (Homo sapiens, UniProt P01116, G12R); test: biochemical;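 further: TR-FRET displacement assay of compound binding to KRas, read after one hour at room temperature, potency from a four-parameter fit of percent-of-control values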
Description: as §2

[9] = test system: phospho-ERK in AsPC-1 (G12D) cells; test: Inhibition of KRas-mediated phosphorylation of ERK (in-cell western); type: cell-based; details: Homo sapiens, ASPC1, 3 h, 3 hours compound, phospho-ERK normalized to GAPDH
Method in brief: as §1

[10] = test system: phospho-ERK in MKN1 (WTdep) cells; test: as above; type: cell-based; details: Homo sapiens, MKN-1, 3 hours compound, phospho-ERK normalized to GAPDH
Method in brief: as §1

[11] = test system: phospho-ERK in NCI-H460 (Q61H) cells; test: as above; type: cell-based; details: Homo sapiens, NCI-H460, 3 h, 3 hours compound, phospho-ERK normalized to GAPDH
Method in brief: as §1

[12] = test system: pERK in MKN1 cells; test: Inhibition of KRas phosphorylation of ERK (Cisbio HTRF pERK assay); details: Homo sapiens, MKN-1, 3 h, read-out: Inhibition (HTRF IC50) of KRas-mediated Phosphorylation of ERK, MKN1
[13] = test system: pERK in PSN1 cells; test: as above; details: Homo sapiens, PSN1, 3 h, read-out: Inhibition (HTRF IC50) of KRas-mediated Phosphorylation of ERK, PSN1
[14] = test system: pERK in ASPC1 cells; test: as above; details: Homo sapiens, ASPC1, read-out: Inhibition (HTRF IC50) of KRas-mediated Phosphorylation of ERK, AsPC-1
[15] = test system: pERK in H727 cells; test: as above; details: Homo sapiens, NCI-H727, read-out: Inhibition (HTRF IC50) of KRas-mediated Phosphorylation of ERK, H727
[16] = test system: pERK in A549 cells; test: as above; details: Homo sapiens, A549, read-out: Inhibition (HTRF IC50) of KRas-mediated Phosphorylation of ERK, A549
[17] = test system: pERK in H460 cells; test: as above; details: Homo sapiens, NCI-H460, read-out: Inhibition (HTRF IC50) of KRas-mediated Phosphorylation of ERK, H460
[18] = test system: pERK in HCT116 cells; test: as above; details: Homo sapiens, HCT-116, read-out: Inhibition (HTRF IC50) of KRas-mediated Phosphorylation of ERK, HCT116
[19] = test system: pERK in H358 cells; test: as above; details: Homo sapiens, NCI-H358, read-out: Inhibition (HTRF IC50) of KRas-mediated Phosphorylation of ERK, H358
Description: To harvest cells from flask using 0.05% Trypsin/EDTA solution. Add 10 mL of media to stop trypsinizing. Pipette the cells into a conical bottom 50 mL centrifuge tube and centrifuge 5 min×1000 rpm. • 2. Re-suspend the cell pellet in media, take a cell count, and then adjust the cell density using fresh media. • 3. Seed 6,000 cells into cell culture plate with 50 μL media. […] Incubate cell plate overnight in a 37° C., 5% CO2 incubator. • Compound titrations • 1. Use Tecan to complete the compound addition. Compounds start from 10 uM top, 3-fold dilution, and 10 doses. The final DMSO concentration is 0.8%. Dispensed 0.2 uM Trametinib as Min control. • 2. Incubate cell plate for 3 hrs in the incubator. • Detection with cisbio pERK HTRF kit • 1. […] At the end of the compound treatment, flick-off the media. • 3. Add 35 μL of lysis buffer per well using a Multidrop Combi. Then place on a plate agitator shaking at 300 rpm at 4° C. for 40 mins. • 4. Make up the HTRF antibody buffer. For each assay plate, mix 50 μL of d2-conjugate antibody with 950 μL of detection buffer. Similarly, mix 50 μL of Cryptate antibody with 950 μL of detection buffer. Then mix the two diluted antibodies together. • 5. Dispense 3.4 μL the antibody buffer to wells of an empty assay plate. Seal the plate and centrifuge plate 30 sec×1000 rpm. • 6. At the end of the 4° C. lysis, centrifuge the lysate plates 3 mins×1500 rpm. • 7. Use the Bravo to transfer 13.6 μL of lysate from cell culture plate to assay plate.
Then incubate assay plate for 2 hrs at room temperature. […] At the end of incubation, read plate on the Envision after centrifuging plate 30 sec× • 1000 rpm.

[20] = biological target: KRas G12C (Homo sapiens, UniProt P01116, G12C); test: biochemical;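 further: binding to KRas assessed by TR-FRET displacement after one hour incubation at room temperature, potency fitted from percent-of-control values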
Sequence of KRas G12C (P01116 1-169 isoform P01116-2 G12C): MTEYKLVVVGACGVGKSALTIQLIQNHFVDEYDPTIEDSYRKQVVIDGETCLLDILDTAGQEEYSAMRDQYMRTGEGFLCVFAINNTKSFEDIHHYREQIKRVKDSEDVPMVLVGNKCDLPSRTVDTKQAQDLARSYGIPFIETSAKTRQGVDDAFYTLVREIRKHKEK
Description: as §2

Sequence of KRas G12V (P01116 1-169 isoform P01116-2 G12V): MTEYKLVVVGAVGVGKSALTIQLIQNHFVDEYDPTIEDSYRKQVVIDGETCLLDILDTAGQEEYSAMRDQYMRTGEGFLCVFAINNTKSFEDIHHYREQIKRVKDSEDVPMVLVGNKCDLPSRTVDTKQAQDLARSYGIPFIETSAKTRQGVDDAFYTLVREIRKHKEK
Sequence of KRas G12D (P01116 1-169 isoform P01116-2 G12D): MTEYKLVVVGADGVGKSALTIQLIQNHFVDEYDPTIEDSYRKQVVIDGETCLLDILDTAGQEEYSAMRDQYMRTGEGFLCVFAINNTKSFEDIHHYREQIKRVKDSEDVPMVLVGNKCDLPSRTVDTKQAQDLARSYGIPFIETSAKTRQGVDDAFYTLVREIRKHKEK
Sequence of KRas G12R (P01116 1-169 isoform P01116-2 G12R): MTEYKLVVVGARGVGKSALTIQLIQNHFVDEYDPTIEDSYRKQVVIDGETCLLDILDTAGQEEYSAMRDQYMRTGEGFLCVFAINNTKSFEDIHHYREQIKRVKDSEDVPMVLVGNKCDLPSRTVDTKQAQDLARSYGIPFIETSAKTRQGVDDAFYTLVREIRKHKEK

Structure (SMILES) | IC50 [1] [nM] | IC50 [2] [nM] | IC50 [3] [nM] | IC50 [4] [nM] | IC50 [5] [nM] | IC50 [6] [nM] | IC50 [7] [nM] | IC50 [8] [nM] | IC50 [9] [nM] | IC50 [10] [nM] | IC50 [11] [nM] | IC50 [12] [nM] | IC50 [13] [nM] | IC50 [14] [nM] | IC50 [15] [nM] | IC50 [16] [nM] | IC50 [17] [nM] | IC50 [18] [nM] | IC50 [19] [nM] | IC50 [20] [nM]
CCc1c(F)ccc2cc(O)cc(-c3ncc4c(NCC5CS(=O)(=O)C5)nc(OC[C@@]56CCCN5C[C@H](F)C6)nc4c3F)c12 [Example 177] | 764 | 1700 | 54 | ≥ 10000 | ≥ 10000 | 3 | ≤ 2 | ≤ 2 | – | – | – | – | – | – | – | – | – | – | – | –
CCc1c(F)ccc2cc(O)cc(-c3ncc4c(N5CCC[C@@H](O)C5)nc(OC[C@@]56CCCN5C[C@H](F)C6)nc4c3F)c12 [Example 193] | – | 63 | 41 | 133 | – | – | – | – | 94 | 4 | 44 | 7 | 3790 | 8 | 36 | 44 | 42 | 82 | – | –
CCc1c(F)ccc2cc(O)cc(-c3ncc4c(NC5CS(=O)(=O)C5)nc(OC[C@@]56CCCN5C[C@H](F)C6)nc4c3F)c12 [Example 168] | ≥ 10000 | 821 | 156 | 1800 | ≥ 10000 | 5 | ≤ 2 | ≤ 2 | – | – | – | – | – | – | – | – | – | – | – | –
CCc1c(F)ccc2cc(O)cc(-c3ncc4c(N5CC6C(=O)NC(=O)C6C5)nc(OC[C@@]56CCCN5C[C@H](F)C6)nc4c3F)c12 (some centres unmarked) [Example 197] | – | – | – | 841 | – | ≤ 2 | ≤ 2 | ≤ 2 | 144 | 11 | 293 | 23 | ≥ 10000 | 57 | 348 | – | 183 | 620 | 112 | –
CCc1c(F)ccc2cc(O)cc(-c3ncc4c(N5C[C@@H]6C[C@H](C5)[C@H](O)C6)nc(OC[C@@]56CCCN5C[C@H](F)C6)nc4c3F)c12 (single isomer, unassigned) [Example 140] | 9 | 11 | – | 28 | 1 | ≤ 2 | ≤ 2 | ≤ 2 | 27 | 2 | 17 | 1 | 922 | 7 | 4 | 2 | 4 | 7 | – | –
C#Cc1c(F)ccc2cc(O)cc(-c3ncc4c(N5CCOC[C@@](C)(O)C5)nc(OC[C@@]56CCCN5C[C@H](F)C6)nc4c3F)c12 [Example 201, (S)-4-(7-(8-ethynyl-7-fluoro-3-hydroxynaphthalen-1-yl)-8-fluoro-2-(((2R,7aS)-2-fluorohexahydro-1H-pyrrolizin-7a-yl)methoxy)pyrido[4,3-d]pyrimidin-4-yl)-6-methyl-1,4-oxazepan-6-ol] | – | – | – | 110 | – | ≤ 2 | ≤ 2 | ≤ 2 | 91 | 2 | 100 | 15 | 2390 | 23 | 42 | 223 | 118 | 187 | 12 | –
CCc1c(F)ccc2cc(O)cc(-c3ncc4c(N5CCCC(O)C5)nc(OC[C@@]56CCCN5C[C@H](F)C6)nc4c3F)c12 (stereo partly drawn) [Example 299, 1-(7-(8-ethyl-7-fluoro-3-hydroxynaphthalen-1-yl)-8-fluoro-2-(((2R,7aS)-2-fluorohexahydro-1H-pyrrolizin-7a-yl)methoxy)pyrido[4,3-d]pyrimidin-4-yl)piperidin-3-ol] | 108 | 333 | 29 | 126 | ≥ 10000 | – | – | – | – | – | – | – | – | – | – | – | – | – | – | –
CCc1c(F)ccc2cc(O)cc(-c3ncc4c(N5CCC[C@@](C)(O)C5)nc(OC[C@]56CCCN5[C@H](CO)CC6)nc4c3F)c12 [Example 302, (R)-1-(7-(8-ethyl-7-fluoro-3-hydroxynaphthalen-1-yl)-8-fluoro-2-(((3S,7aR)-3-(hydroxymethyl)tetrahydro-1H-pyrrolizin-7a(5H)-yl)methoxy)pyrido[4,3-d]pyrimidin-4-yl)-3-methylpiperidin-3-ol] | – | – | – | 360 | – | ≤ 2 | ≤ 2 | ≤ 2 | 152 | 5 | 193 | 3 | 2530 | 31 | 82 | 65 | 120 | 179 | 26 | –
CCc1c(F)ccc2cc(O)cc(-c3ncc4c(N5CCOC[C@@](C)(O)C5)nc(OC[C@@]56CCCN5C[C@H](F)C6)nc4c3F)c12 [Example 200] | 3 | 21 | 13 | 67 | – | – | – | – | 47 | 3 | 22 | 2 | 1010 | 3 | 6 | 5 | 5 | 11 | – | –
CCc1c(F)ccc2cc(O)cc(-c3ncc4c(N5CCC[C@]6(CC(=O)N6)C5)nc(OC[C@@]56CCCN5C[C@H](F)C6)nc4c3F)c12 (single isomer, unassigned) [Example 194] | – | – | – | 89 | – | ≤ 2 | ≤ 2 | ≤ 2 | 92 | 7 | 65 | 3 | 1350 | 20 | 34 | 63 | 55 | 686 | 4 | –
CCc1c(F)ccc2cc(O)cc(-c3ncc4c(N5CCC[C@@](C)(O)C5)nc(OCC5(CN6CCCC6)CC5)nc4c3F)c12 [Example 202, (3R)-1-[7-(8-ethyl-7-fluoro-3-hydroxy-1-naphthyl)-8-fluoro-2-[[1-(pyrrolidin-1-ylmethyl)cyclopropyl]methoxy]pyrido[4,3-d]pyrimidin-4-yl]-3-methyl-piperidin-3-ol] | – | – | – | 159 | – | ≤ 2 | ≤ 2 | ≤ 2 | 60 | 3 | 74 | 5 | 2490 | 7 | 33 | 9 | 28 | 47 | 4 | ≤ 2
